Experimental data as given in PMC7139875, “4-Pyridinio-1,4-Dihydropyridines as Calcium Ion Transport Modulators: Antagonist, Agonist, and Dual Action” (Oxidative Medicine and Cellular Longevity, 2020).
Entries after “also recorded” stand apart in the source; their conditions may differ. Like-named read-outs stand apart in the source and are kept apart here. Values belong to the compound of their own block, whether it stands above or below them.

What was measured:
[1] = test system: Ca2+ ion channel activity evoked by compound 4 in SH-SY5Y cells; test: Inhibitor analysis of Ca2+ ion channel activity evoked by compound 4; assay type: cell-based, human; details: for Effect on Ca2+ ion channel activity in the presence of compound 4: inhibitor at concentrations from 4 to 100 μM; for inhibition at 100 µM / IC50: Homo sapiens; for inhibition at 100 µM: SH-SY5Y, 15 min preincubation; for IC50: 100 μM compound 4, SH-SY5Y cells, read-out: IC50 for inhibition of Ca2+ ion channel activity evoked by compound 4
Experimental: The intracellular free Ca^2+ concentration [Ca^2+]i was measured in confluent monolayers of SH-SY5Y or […] cells with the Ca^2+-sensitive fluorescent indicator Fluo-4 NW according to the instruction (Fluo-4 NW Calcium Assay Kit, Thermo Fisher Scientific, cat. No. F36206) (as referenced by […] al.. Changes in [Ca^2+]i were measured from the fluorescence emitted at 516 nm due to alternate excitation at 494 nm using the microplate reader Tecan Infinite M1000 (Austria). Intracellular Ca^2+ concentration was calculated from a standard curve with known amounts of free Ca^2+ using the standard Ca^2+-EGTA buffering system (Calcium Calibration Buffer Kit, cat. No.C-3008, Thermo Fisher Scientific). […] The commercial calcium agonist compound Bay […] was used as the reference compound.

[2] = test system: carbachol-dependent mobilization of intracellular Ca2+ in SH-SY5Y cells; test: Antagonist effect on carbachol-evoked intracellular Ca2+ mobilization (Fluo-4 NW); assay type: cell-based, human
Experimental: (§1) The intracellular free Ca^2+ concentration [Ca^2+]i was measured in confluent monolayers of SH-SY5Y or A7R5 cells with the Ca^2+-sensitive fluorescent indicator Fluo-4 NW according to the instruction (Fluo-4 NW Calcium Assay Kit, Thermo Fisher Scientific, cat. No. F36206) (as referenced by Vilskersts et al..
The investigation of Ca^2+ channel blocking activity of DHP derivatives was based on the effect of DHP on carbachol evoked intracellular Ca^2+ mobilization in human neuroblastoma cells.
The cells were preincubated in the dark for 15 minutes with the tested compounds at concentrations ranging from 0.16 to 100 μM. The application of carbachol (100 nM) to […] NW loaded SH-SY5Y cells stimulated a classic “biphasic” response. The well-known 3rd generation calcium channel inhibitor amlodipine, which is also claimed to act as antioxidant and free radical scavenger, was used as the positive control (at the concentration range from 20 to 100 μM).
(§2) Changes in [Ca^2+]i were measured from the fluorescence emitted at 516 nm due to alternate excitation at 494 nm using the microplate reader Tecan Infinite M1000 (Austria). Intracellular Ca^2+ concentration was calculated from a standard curve with known amounts of free Ca^2+ using the standard Ca^2+-EGTA buffering system (Calcium Calibration Buffer Kit, cat. No.C-3008, Thermo Fisher Scientific).
The IC50 values for the tested compounds were calculated using GraphPad Prism 4.0 software.

[Ca2+]i in SH-SY5Y cells = Ca2+ channel agonist activity, [Ca2+]i in Fluo-4 NW-loaded cells; assay type: cell-based, human; details: for Agonist activity (RFU, 100 μM): compound at 100 μM
Experimental: as §1
(§3) For the investigation of Ca^2+ channel agonist activity of the DHP compound, 4 […] NW loaded SH-SY5Y or A7R5 cells were stimulated by the addition of compound 4 at the concentration range from 4 to 100 μM. The well-known calcium channel agonist Bay K8644 was used as the positive control (at the concentration range from 4 to 100 μM).
as §2
(§4) In some experiments, […] NW loaded cells were washed and placed in normal Ca^2+-free HEPES-buffered replacement medium. In Ca^2+ restoration experiments, Ca^2+ was initially absent from the medium and was restored to 1 mM after 870 s of stimulation with compound 4.

[3] = Electrochemical oxidation potentials by cyclic voltammetry; assay type: physicochemical; details: glassy carbon electrode, vs Ag/Ag+, acetonitrile, 0.1 M TBABF4
Experimental: The cyclic voltammetry experiments were carried out on the PARSTAT 2273 electrochemical system. A stationary glassy carbon disk electrode (d = 0.8 mm) served as the working electrode, while the counter electrode was a Pt wire. The oxidation potentials were measured relative to Ag/Ag^+ reference electrode. Acetonitrile was dried over P2O5 and distilled; the distillate was stored over CaH2 and redistilled just before use. Recrystallized tetrabutylammonium tetrafluoroborate (TBABF4) was used as a supporting electrolyte at 0.1 M concentration.

[4] = test system: Ca2+ response induced by compound 4 in SH-SY5Y cells (RyRs); test: Role of RyRs in Ca2+ response induced by compound 4 (Ca2+-free medium); assay type: cell-based, human
Experimental: as §4
Where indicated, the cells were preincubated with inhibitors of Ca^2+ signaling proteins (amlodipine, nifedipine, nicardipine, mecamylamine, atropine, or 2-aminoethoxydiphenyl borate (2-APB) in dose 100 μM; procaine in dose 10 mM for 15 min, or with 5 μM thapsigargin for 10 min, or with 100 μM ruthenium red for 5 min), followed by stimulation with 100 μM of compound 4. The commercial calcium agonist compound Bay K8644 was used as the reference compound.

isolated rat aortic ring = test: Isolated rat aortic ring model, KCl precontracted denuded rings
Experimental: The experimental animal (one rat) was anesthetized with pentobarbital sodium (60 mg/kg i.p.). Once deep anesthesia was achieved, the thoracic aorta was dissected, placed in ice cold Krebs-Henseleit (K-H) buffer (content in mM: NaCl 118, KCl 4.7, CaCl2 2.5, MgCl2 1.64, NaHCO3 24.88, KH2PO4 1.18, glucose 10.0, sodium pyruvate 5.0, and disodium salt of ethylenediaminetetraacetic acid 0.05), cleaned from connective and fatty tissues, and cut into 3-4 mm long rings. Endothelium was mechanically scraped off with the tips of forceps, and the aortic rings were mounted between two stainless steel hooks attached to an isometric force transducer in 20 ml organ bath in K-H buffer bubbled with 95% O2 and 5% CO2 at 37°C (one separate aortic ring was used for each tested compound). Passive tension was adjusted to approximately 40 mN over a 60 min equilibration period. The experiment was started after the equilibration period by adding KCl solution to obtain a concentration of 50 mM. Addition of KCl induced contraction of the aortic rings, and a plateau of contraction was reached about […]. Thereafter, the tested compound solutions in dimethyl sulfoxide were added to the aortic rings in order to obtain the final concentrations in the range of 10^−10-10^−5 M. Changes in the tension were recorded using LabChart Pro software from ADInstruments (https://www.adinstruments.com/products/labchart/labchart-for-research). The EC50 values of the tested compounds were calculated using Prism 3.0 software from GraphPad (GraphPad Software Inc., USA) (https://www.graphpad.com/scientific-software/prism/). The experimental procedures involving experimental animals were carried out in accordance with the guidelines of the European Community, LR local laws and policies, and were approved by the Latvian Animal Protection Ethical Committee, the Food and Veterinary Service, Riga, Latvia.

[Ca2+]i in A7R5 cells = Ca2+ channel agonist activity in A7R5 aorta smooth muscle cells; assay type: cell-based, rat; details: 20 to 100 μM
Experimental: as §1, §3, §2

[5] = SH-SY5Y cells, 100 nM carbachol, 15 min preincubation
[6] = inhibitor 100 μM, 100 μM compound 4
[7] = inhibitor 4 μM, 100 μM compound 4
[8] = inhibitor 20 μM, 100 μM compound 4
[9] = Homo sapiens, SH-SY5Y cells, 100 nM carbachol, 15 min preincubation, read-out: Antagonist activity (IC50)

Electrooxidation potential [3]: 1.70 V
Structure (SMILES): CCOC(=O)COC(=O)C1=C(C)NC(C)=C(C(=O)OCC(=O)OCC)C1c1cc[n+](CC(=O)c2ccccc2)cc1 [Compound 5]
Antagonist activity (IC50) [2, 5]: lacked any activity; also recorded: no activity; also recorded: No effect
Agonist activity (RFU, 100 μM) ([Ca2+]i in SH-SY5Y cells): No effect

IC50 [1]: > 100 µM
Structure (SMILES): COC(=O)C1=C(C)NC(C)=C(C(=O)OCCN(C)Cc2ccccc2)C1c1cccc([N+](=O)[O-])c1 (stereo not drawn) [Nicardipine]
inhibition at 100 µM [1, 6]: 33 ± 8%
Inhibition (%) of Ca2+ ion channel activity evoked by compound 4 [1, 7]: 10 ± 6%
Inhibition (%) of Ca2+ ion channel activity evoked by compound 4 [1, 8]: 11 ± 5%

IC50 ([4]; Homo sapiens, SH-SY5Y, Ca2+-free medium, read-out: IC50 for inhibition of Ca2+ response induced by compound 4): 61 ± 9 µM
Structure (SMILES): CCN(CC)CCOC(=O)c1ccc(N)cc1 [Procaine]
inhibition at 6.25 µM ([4]; Homo sapiens, SH-SY5Y, inhibitor 6.25 μM, Ca2+-free medium): 0%
inhibition at 12.5 µM ([4]; Homo sapiens, SH-SY5Y, inhibitor 12.5 μM, Ca2+-free medium): 5 ± 9%
inhibition at 25 µM ([4]; Homo sapiens, SH-SY5Y, inhibitor 25 μM, Ca2+-free medium): 0%
inhibition at 50 µM ([4]; Homo sapiens, SH-SY5Y, inhibitor 50 μM, Ca2+-free medium): 18 ± 6%
inhibition at 100 µM ([4]; Homo sapiens, SH-SY5Y, inhibitor 100 μM, Ca2+-free medium): 98 ± 5%
Ca2+ response induced by compound 4 after preincubation with inhibitor ([4]; inhibitor 10 mM): completely blocked; also recorded: absent

IC50 [1]: > 100 µM
Structure (SMILES): COC(=O)C1=C(C)NC(C)=C(C(=O)OC)C1c1ccccc1[N+](=O)[O-] [Nifedipine]
inhibition at 100 µM [1, 6]: 42 ± 5%
Inhibition (%) of Ca2+ ion channel activity evoked by compound 4 [1, 7]: 7 ± 8%
Inhibition (%) of Ca2+ ion channel activity evoked by compound 4 [1, 8]: 16 ± 10%
Phase of the compound 4 response that is inhibited [1, 6]: inhibited both phases

IC50 [2, 9]: 3.6 ± 0.3 µM
Electrooxidation potential [3]: 1.68 V
Structure (SMILES): CCOC(=O)COC(=O)C1=C(C)NC(C)=C(C(=O)OCC(=O)OCC)C1c1ccc[n+](CC(=O)c2ccccc2)c1 [Compound 3]
Agonist activity (RFU, 100 μM) ([Ca2+]i in SH-SY5Y cells): No effect

IC50 [2, 9]: 12 ± 2 µM
IC50 ([2]; Homo sapiens, Table 5, SH-SY5Y cells, read-out: IC50, antagonist effect on Ca2+ channels activated with carbachol): 12 ± 2 µM
EC50 (isolated rat aortic ring; KCl precontracted denuded rat aortic rings, read-out: Calcium channel blocking activity EC50): 0.691 ± 0.167 µM
Electrooxidation potential [3]: 1.68 V
Structure (SMILES): CCOC(=O)COC(=O)C1=C(C)NC(C)=C(C(=O)OCC(=O)OCC)C1c1ccc[n+](C(C)C(=O)c2ccc(OCc3ccccc3)cc2)c1 (stereo not drawn) [Compound 4]
inhibition at 8 µM ([2]; Homo sapiens, SH-SY5Y, compound at 0,8 μM, read-out: Inhibition (%) of Ca2+ channels activated with carbachol): 4 ± 10%
inhibition at 16 µM ([2]; Homo sapiens, SH-SY5Y, compound at 0,16 μM, read-out: Inhibition (%) of Ca2+ channels activated with carbachol): -16 ± 10%
inhibition at 4 µM ([2]; Homo sapiens, SH-SY5Y, compound at 4 μM, read-out: Inhibition (%) of Ca2+ channels activated with carbachol): 11 ± 12%
inhibition at 20 µM ([2]; Homo sapiens, SH-SY5Y, compound at 20 μM, read-out: Inhibition (%) of Ca2+ channels activated with carbachol): 71 ± 9%
Decrease of intracellular [Ca2+]i signal in the absence of extracellular Ca2+ ([Ca2+]i in SH-SY5Y cells; 100 μM compound, compared to presence of extracellular Ca2+): 50%
Agonist activity (RFU, 100 μM) ([Ca2+]i in SH-SY5Y cells): 14425 ± 1072 RFU
Calcium channel blocking activity relative to amlodipine (times weaker) (isolated rat aortic ring; isolated rat aortic ring model): about 50 times
Agonist effect (contractions of aorta rings) (isolated rat aortic ring; isolated rat aortic rings): no agonist effect
Ca2+ ion channel agonist activity ([Ca2+]i in A7R5 cells): dose-dependent agonist activity

IC50 [2, 9]: 100 ± 9 µM
Electrooxidation potential [3]: 1.78 V
Structure (SMILES): CCOC(=O)COC(=O)C1=C(C)NC(C)=C(C(=O)OCC(=O)OCC)C1c1ccc[n+](CC(=O)c2ccc(OC)cc2)c1 [Compound 6]
Antagonist activity relative to amlodipine (times lower) ([2]; SH-SY5Y cells): approximately nine times lower
Agonist activity (RFU, 100 μM) ([Ca2+]i in SH-SY5Y cells): No effect

Further lines, the compound ahead of its results:

Structure (SMILES): C/C=C(/C)C(=O)O[C@H]1C(C)=C2[C@H]([C@@H]1OC(=O)CCCCCCC)[C@@](C)(OC(C)=O)C[C@H](OC(=O)CCC)[C@@]1(O)[C@H]2OC(=O)[C@@]1(C)O [thapsigargin]
Influence on Ca2+ ion increase induced by compound 4 ([1]; 5 μM inhibitor, Ca2+-free medium): no influence

Structure (SMILES): CN1[C@@H]2CC[C@H]1C[C@@H](OC(=O)C(CO)c1ccccc1)C2 (stereo partly drawn) [Atropine]
Effect on Ca2+ ion channel activity in the presence of compound 4 [1]: no effect

Structure (SMILES): COC(=O)C1=C(C)NC(C)=C([N+](=O)[O-])C1c1ccccc1C(F)(F)F (stereo not drawn) [Bay K8644]
Antagonist activity (IC50) [2, 5]: No effect
Agonist activity (RFU, 100 μM) ([Ca2+]i in SH-SY5Y cells): 1553 ± 115 RFU

Structure (SMILES): NCCOB(c1ccccc1)c1ccccc1 [Compound 2-APB, 2-aminoethoxydiphenyl borate]
Effect on Ca2+ channel response induced by compound 4 ([1]; pretreatment for 15 min): no effect

Structure (SMILES): N.N.N.N.N.N.N.N.N.N.N.N.N.N.[Cl-].[Cl-].[Cl-].[Cl-].[Cl-].[Cl-].[O-2].[O-2].[Ru+3].[Ru+3].[Ru+4] [Ruthenium, Ruthenium red]
Ca2+ response induced by compound 4 after preincubation with inhibitor ([4]; inhibitor 100 μM): absent

Structure (SMILES): CNC1(C)C2CCC(C2)C1(C)C (stereo not drawn) [Mecamylamine]
Effect on Ca2+ ion channel activity in the presence of compound 4 [1]: no effect

Structure (SMILES): CCOC(=O)CC[n+]1cccc(C2C(C(=O)OCC(=O)OCC)=C(C)NC(C)=C2C(=O)OCC(=O)OCC)c1 [Compound 2]
Antagonist activity (IC50) [2, 5]: lacked any activity; also recorded: no activity; also recorded: No effect
Agonist activity (RFU, 100 μM) ([Ca2+]i in SH-SY5Y cells): No effect
Electrooxidation potential [3]: 1.69 V

Structure (SMILES): CCOC(=O)COC(=O)C1=C(C)NC(C)=C(C(=O)OCC(=O)OCC)C1c1ccc[n+](CC(=O)c2ccc([N+](=O)[O-])cc2)c1 [Compound 1]
IC50 [2, 9]: 100 ± 12 µM
Agonist activity (RFU, 100 μM) ([Ca2+]i in SH-SY5Y cells): No effect
